{"source": "patent US20250281497A1", "about": "“FUSED AMINO PYRIMIDINE COMPOUNDS FOR TREATMENT OF SEIZURE DISORDERS” (Ovid Therapeutics Inc., priority 2024, published 2025)", "target": "T1, KCC2 (Homo sapiens, UniProt Q9H2X9)", "T1 construct": "expressed in transfected cells; host or cells: HEK-293 (ATCC CRL-1573)", "T1 sequence (Q9H2X9 1-1116 isoform Q9H2X9-2)": "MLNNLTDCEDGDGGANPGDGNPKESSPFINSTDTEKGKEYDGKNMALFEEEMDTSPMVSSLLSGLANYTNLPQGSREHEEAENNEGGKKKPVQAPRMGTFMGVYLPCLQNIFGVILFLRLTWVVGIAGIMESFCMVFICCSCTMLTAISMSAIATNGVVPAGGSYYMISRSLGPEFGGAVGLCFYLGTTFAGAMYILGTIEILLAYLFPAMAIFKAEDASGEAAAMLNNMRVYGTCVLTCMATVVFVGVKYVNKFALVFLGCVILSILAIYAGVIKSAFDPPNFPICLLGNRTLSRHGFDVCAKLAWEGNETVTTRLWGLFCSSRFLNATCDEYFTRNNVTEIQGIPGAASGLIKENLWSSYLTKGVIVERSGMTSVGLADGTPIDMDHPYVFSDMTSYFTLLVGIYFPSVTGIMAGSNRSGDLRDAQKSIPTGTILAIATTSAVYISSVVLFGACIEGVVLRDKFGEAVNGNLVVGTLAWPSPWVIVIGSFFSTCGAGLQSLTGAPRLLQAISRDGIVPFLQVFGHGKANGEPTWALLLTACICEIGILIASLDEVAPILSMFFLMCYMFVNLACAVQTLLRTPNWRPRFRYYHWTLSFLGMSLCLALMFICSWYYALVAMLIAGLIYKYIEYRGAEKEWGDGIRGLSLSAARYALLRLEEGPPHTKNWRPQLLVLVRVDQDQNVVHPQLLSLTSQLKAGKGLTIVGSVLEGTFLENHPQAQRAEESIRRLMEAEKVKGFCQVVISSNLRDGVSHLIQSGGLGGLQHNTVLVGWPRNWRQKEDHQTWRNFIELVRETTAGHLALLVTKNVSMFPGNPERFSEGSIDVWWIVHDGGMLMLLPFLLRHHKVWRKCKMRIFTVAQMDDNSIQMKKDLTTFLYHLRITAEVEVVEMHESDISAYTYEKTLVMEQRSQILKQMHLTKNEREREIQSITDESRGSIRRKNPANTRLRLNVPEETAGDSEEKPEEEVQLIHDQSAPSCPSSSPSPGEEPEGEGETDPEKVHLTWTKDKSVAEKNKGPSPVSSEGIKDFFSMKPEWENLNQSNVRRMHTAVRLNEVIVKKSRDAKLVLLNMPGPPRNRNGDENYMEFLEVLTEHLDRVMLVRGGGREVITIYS", "assay": "FLIPR Tl+ flux assay, HEK-293 cells expressing KCC2", "format": "cell-based", "experimental": "A multi-tiered high-throughput screening assay was used, leveraging a proprietary library of 1.3 million small molecule compounds from AstraZeneca (Cambridge, UK) to identify chemical entities capable of activating KCC2. A single point concentration of 30 μM was used to identify potassium flux using an established thallium […] influx FLIPR assay as the primary read out in HEK-293 cells overexpressing KCC2 (Cardarelli et al., Nat. Med. 23, 1394-1396 (2017); Conway et al., J Biol Chem 292, 21253-21263 (2017); Lee et at, 2022, supra).\nCell Culture and biotinylation. […]\nFLIPR TI Flux assay. HEK-293 cells were washed with HBSS, and then incubated with loading buffer containing TI sensitive fluorescent dye (https://www.moleculardevices.com), 20 μM bumetanide 20 μM ouabain and 2.5 mM probenecid for 1 h at room temperature (RT) under control conditions or with drugs in the dark using a FlexStation 3 microplate reader (Molecular Devices) and imaged […] for 30 min. Stimulus buffer was added containing 5 mM K^+/0.5 mM Tl^+ and cells were imaged every 1.5 over a 190 second time course The initial rate Tl^+ uptake (Relative Fluorescence Units (RFU) per second) was determined following addition of the stimulus buffer as outlined previously (Conway et at, 2017, supra) (Lee et at, 2022, supra). […]", "note": "pEC50: −log10 of the molar value. Values joined by “and” are separate entries in the source; they are usually repeats but may differ in a detail not shown here. Identical values can stand only once."}
{"smiles": "C[C@@H]1CN(c2nc3c(c(Nc4ccc(C5CCCCC5)cc4)n2)COC3)CCO1", "note": "[Compound A, (R)—N-(4-cyclohexylphenyl)-2-(2-methylmorpholino)-5,7-dihydrofuro[3,4-d]pyrimidin-4-amine]", "values": [{"measurement": "pEC50", "setting": "HEK-293 cells expressing KCC2, 1% β-cyclodextrin vehicle, read-out: EC50 for KCC2 as measured by Tl+ flux", "value": "6.59 and 6.58"}, {"measurement": "maximum potentiation of KCC2", "setting": "saturating concentration of 3 μM, 1% BCD vehicle", "value": 90, "unit": "%"}]}
